In patent US10538555B2, “Macrocyclic inhibitors of the PD-1/PD-L1 and CD80(B7-1)/PD-L1 protein/protein interactions” (BRISTOL-MYERS SQUIBB COMPANY, priority 2014, dated 2020):
pIC50: −log10 of the molar value. *1 amine or outer side, *2 acyl side, *3 side chain or, on linkers, in order; H or OH if unused. Where a SMILES comes first, the peptide text is derived from it. Bridges are numbered along the chain shown (N, C = ends). [ ]: non-standard residue; d: D form. ξ: configuration not given here. Phe(3,4,5-F3) = N[C@@H](Cc1cc(F)c(F)c(F)c1)C(=O)O; Phe(3,4-F2) = N[C@@H](Cc1ccc(F)c(F)c1)C(=O)O; d(cisHyp) = O=C(O)[C@H]1C[C@@H](O)CN1; NMeF = CN[C@@H](Cc1ccccc1)C(=O)O; X1 = O=C([C@H]1COCCN1[*:1])[*:2]; dNMeF = CN[C@H](Cc1ccccc1)C(=O)O; dHyp = O=C(O)[C@H]1C[C@H](O)CN1; NMeNle = CCCC[C@H](NC)C(=O)O; ξY = NC(Cc1ccc(O)cc1)C(=O)O; Orn = NCCC[C@H](N)C(=O)O; Dab = NCC[C@H](N)C(=O)O

Target: T1, Human PD-L1/PD-1 (Homo sapiens, UniProt Q9NZQ7)
T1 construct: TVMV protease cleavage site (C); made in house; host or cells: HEK293T cells
Assay: HTRF Human PD-L1/PD-1 binding assay (PD-1-Ig/PD-L1-His)
Settings: PD-L1-His 10 nM, PD-1-Ig 20 nM; class symbol; read-out: HTRF Human PD-L1/PD-1 Binding Assay IC50 Range
Method in brief: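 Inhibitors were preincubated 15 min with human PD-L1(18-239)-His (10 nM final), then PD-1(25-167)-Ig (20 nM final) was added for 15 min in dPBS/0.1% BSA/0.05% Tween-20. Eu-cryptate anti-Ig (1 nM) and APC anti-His (20 nM) were added; 665/620 nm ratio read after 30 min.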

T1 sequence (Q9NZQ7 with tags, fused parts or gaps): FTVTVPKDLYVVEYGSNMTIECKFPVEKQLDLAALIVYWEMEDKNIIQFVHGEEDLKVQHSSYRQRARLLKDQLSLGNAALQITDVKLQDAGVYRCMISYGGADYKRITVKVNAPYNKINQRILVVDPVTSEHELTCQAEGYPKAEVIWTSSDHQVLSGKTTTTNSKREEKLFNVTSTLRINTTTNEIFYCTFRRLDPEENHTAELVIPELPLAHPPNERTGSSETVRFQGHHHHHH

SMILES	pIC50
CCCC[C@H]1C(=O)N2C[C@H](O)C[C@@H]2C(=O)N[C@@H](CC(=O)O)C(=O)N[C@@H](C(C)C)C(=O)N(C)[C@@H](Cc2ccccc2)C(=O)N[C@@H](CCC(=O)O)C(=O)N2C[C@H](O)C[C@@H]2C(=O)N[C@@H](Cc2c[nH]c3ccccc23)C(=O)N[C@@H](Cc2ccc(O)cc2)C(=O)N[C@@H](CCC(=O)O)C(=O)N[C@H](C(=O)NCC(N)=O)CSCC(=O)N[C@@H](Cc2ccc(F)c(F)c2)C(=O)N(C)[C@@H](Cc2ccccc2)C(=O)N1C [Example 9312] ({CH2CO}-[Phe(3,4-F2)][NMeF][NMeNle][d(cisHyp)]DV[NMeF]E[d(cisHyp)]WYECG-NH2; thioether N-13)	7.00 to 8.00
CCCC[C@H]1C(=O)N2C[C@H](O)C[C@@H]2C(=O)N[C@@H](CC(=O)O)C(=O)N[C@@H](C(C)C)C(=O)N(C)[C@@H](Cc2ccccc2)C(=O)N[C@@H](CCC(N)=O)C(=O)N2C[C@H](O)C[C@@H]2C(=O)N[C@@H](Cc2c[nH]c3ccccc23)C(=O)N[C@@H](Cc2ccc(O)cc2)C(=O)N[C@@H](CCC(=O)O)C(=O)N[C@H](C(=O)NCC(N)=O)CSCC(=O)N[C@@H](Cc2ccc(F)c(F)c2)C(=O)N(C)[C@@H](Cc2ccccc2)C(=O)N1C [Example 9315] ({CH2CO}-[Phe(3,4-F2)][NMeF][NMeNle][d(cisHyp)]DV[NMeF]Q[d(cisHyp)]WYECG-NH2; thioether N-13)	7.00 to 8.00
CCCC[C@H]1C(=O)N2C[C@@H](O)C[C@@H]2C(=O)N[C@@H](CC(=O)O)C(=O)N[C@@H](C(C)C)C(=O)N(C)[C@@H](Cc2ccccc2)C(=O)N[C@@H](CCC(=O)O)C(=O)N2CCOC[C@@H]2C(=O)N[C@@H](Cc2c[nH]c3ccccc23)C(=O)N[C@@H](Cc2ccc(O)cc2)C(=O)N[C@@H](CCCN)C(=O)N[C@H](C(=O)NCC(N)=O)CSCC(=O)N[C@@H](Cc2cc(F)c(F)c(F)c2)C(=O)N(C)[C@@H](Cc2ccccc2)C(=O)N1C [Example 9321] ({CH2CO}-[Phe(3,4,5-F3)][NMeF][NMeNle][dHyp]DV[NMeF]E[X1]WY[Orn]CG-NH2; thioether N-13)	8.00 to 9.00

The next lines start with the values.

pIC50	SMILES
8.00 to 9.00	CCCC[C@H]1C(=O)N2C[C@H](O)C[C@@H]2C(=O)N[C@@H](CC(=O)O)C(=O)N[C@@H](C(C)C)C(=O)N(C)[C@@H](Cc2ccccc2)C(=O)N[C@@H](CCN)C(=O)N2C[C@H](O)C[C@@H]2C(=O)N[C@@H](Cc2c[nH]c3ccccc23)C(=O)N[C@@H](Cc2ccc(O)cc2)C(=O)N[C@@H](CCCN)C(=O)N[C@H](C(=O)NCC(N)=O)CSCC(=O)N[C@@H](Cc2ccc(F)c(F)c2)C(=O)N(C)[C@@H](Cc2ccccc2)C(=O)N1C [Example 9310] ({CH2CO}-[Phe(3,4-F2)][NMeF][NMeNle][d(cisHyp)]DV[NMeF][Dab][d(cisHyp)]WY[Orn]CG-NH2; thioether N-13)
8.00 to 9.00	CCCC[C@H]1C(=O)N2C[C@H](O)C[C@@H]2C(=O)N[C@@H](CC(=O)O)C(=O)N[C@@H](C(C)C)C(=O)N(C)[C@H](Cc2ccccc2)C(=O)N[C@@H](CCN)C(=O)N2C[C@H](O)C[C@@H]2C(=O)N[C@@H](Cc2c[nH]c3ccccc23)C(=O)N[C@@H](Cc2ccc(O)cc2)C(=O)N[C@@H](CCCN)C(=O)N[C@H](C(=O)NCC(N)=O)CSCC(=O)N[C@@H](Cc2ccc(F)c(F)c2)C(=O)N(C)[C@@H](Cc2ccccc2)C(=O)N1C [Example 9311] ({CH2CO}-[Phe(3,4-F2)][NMeF][NMeNle][d(cisHyp)]DV[dNMeF][Dab][d(cisHyp)]WY[Orn]CG-NH2; thioether N-13)
8.00 to 9.00	CCCC[C@H]1C(=O)N2C[C@H](O)C[C@@H]2C(=O)N[C@@H](CC(=O)O)C(=O)N[C@@H](C(C)C)C(=O)N(C)[C@@H](Cc2ccccc2)C(=O)N[C@@H](CC(=O)O)C(=O)N2C[C@H](O)C[C@@H]2C(=O)N[C@@H](Cc2c[nH]c3ccccc23)C(=O)N[C@@H](Cc2ccc(O)cc2)C(=O)N[C@@H](CCC(=O)O)C(=O)N[C@H](C(=O)NCC(N)=O)CSCC(=O)N[C@@H](Cc2ccc(F)c(F)c2)C(=O)N(C)[C@@H](Cc2ccccc2)C(=O)N1C [Example 9314] ({CH2CO}-[Phe(3,4-F2)][NMeF][NMeNle][d(cisHyp)]DV[NMeF]D[d(cisHyp)]WYECG-NH2; thioether N-13)
8.00 to 9.00	CCCC[C@H]1C(=O)N2C[C@H](O)C[C@@H]2C(=O)N[C@@H](CC(=O)O)C(=O)N[C@@H](C(C)C)C(=O)N(C)[C@@H](Cc2ccccc2)C(=O)N[C@@H](CC(N)=O)C(=O)N2C[C@H](O)C[C@@H]2C(=O)N[C@@H](Cc2c[nH]c3ccccc23)C(=O)NC(Cc2ccc(O)cc2)C(=O)N[C@@H](CCC(=O)O)C(=O)N[C@H](C(=O)NCC(N)=O)CSCC(=O)N[C@@H](Cc2ccc(F)c(F)c2)C(=O)N(C)[C@@H](Cc2ccccc2)C(=O)N1C (some centres unmarked) [Example 9317] ({CH2CO}-[Phe(3,4-F2)][NMeF][NMeNle][d(cisHyp)]DV[NMeF]N[d(cisHyp)]W[ξY]ECG-NH2; thioether N-13)
8.00 to 9.00	CCCC[C@H]1C(=O)N2C[C@H](O)C[C@@H]2C(=O)N[C@@H](CC(=O)O)C(=O)N[C@@H](C(C)C)C(=O)N(C)[C@@H](Cc2ccccc2)C(=O)N[C@@H](CCCCN)C(=O)N2C[C@H](O)C[C@@H]2C(=O)N[C@@H](Cc2c[nH]c3ccccc23)C(=O)N[C@@H](Cc2ccc(O)cc2)C(=O)N[C@@H](CC(C)C)C(=O)N[C@H](C(=O)NCC(N)=O)CSCC(=O)N[C@@H](Cc2ccc(F)c(F)c2)C(=O)N(C)[C@@H](Cc2ccccc2)C(=O)N1C [Example 9318] ({CH2CO}-[Phe(3,4-F2)][NMeF][NMeNle][d(cisHyp)]DV[NMeF]K[d(cisHyp)]WYLCG-NH2; thioether N-13)
8.00 to 9.00	CCCC[C@H]1C(=O)N2C[C@H](O)C[C@@H]2C(=O)N[C@@H](CC(=O)O)C(=O)N[C@@H](C(C)C)C(=O)N(C)[C@@H](Cc2ccccc2)C(=O)N[C@@H](CC(=O)O)C(=O)N2C[C@H](O)C[C@@H]2C(=O)N[C@@H](Cc2c[nH]c3ccccc23)C(=O)N[C@@H](Cc2ccc(O)cc2)C(=O)N[C@@H](CC(C)C)C(=O)N[C@H](C(=O)NCC(N)=O)CSCC(=O)N[C@@H](Cc2cc(F)c(F)c(F)c2)C(=O)N(C)[C@@H](Cc2ccccc2)C(=O)N1C [Example 9319] ({CH2CO}-[Phe(3,4,5-F3)][NMeF][NMeNle][d(cisHyp)]DV[NMeF]D[d(cisHyp)]WYLCG-NH2; thioether N-13)
8.00 to 9.00	CCCC[C@H]1C(=O)N2C[C@H](O)C[C@@H]2C(=O)N[C@@H](CC(=O)O)C(=O)N[C@@H](C(C)C)C(=O)N(C)[C@@H](Cc2ccccc2)C(=O)N[C@@H](CCC(N)=O)C(=O)N2C[C@H](O)C[C@@H]2C(=O)N[C@@H](Cc2c[nH]c3ccccc23)C(=O)N[C@@H](Cc2ccc(O)cc2)C(=O)N[C@@H](CC(C)C)C(=O)N[C@H](C(=O)NCC(N)=O)CSCC(=O)N[C@@H](Cc2cc(F)c(F)c(F)c2)C(=O)N(C)[C@@H](Cc2ccccc2)C(=O)N1C [Example 9320] ({CH2CO}-[Phe(3,4,5-F3)][NMeF][NMeNle][d(cisHyp)]DV[NMeF]Q[d(cisHyp)]WYLCG-NH2; thioether N-13)

Same assay, conditions: PD-L1-His 10 nM, PD-1-Ig 20 nM; read-out: HTRF Human PD-L1/PD-1 Binding Assay IC50

pIC50	SMILES
8.57	CCCC[C@H]1C(=O)N2C[C@H](O)C[C@@H]2C(=O)N[C@@H](CC(=O)O)C(=O)N[C@@H](C(C)C)C(=O)N(C)[C@H](Cc2ccccc2)C(=O)N[C@@H](CCC(=O)O)C(=O)N2C[C@H](O)C[C@@H]2C(=O)N[C@@H](Cc2c[nH]c3ccccc23)C(=O)N[C@@H](Cc2ccc(O)cc2)C(=O)N[C@@H](CCC(=O)O)C(=O)N[C@H](C(=O)NCC(N)=O)CSCC(=O)N[C@@H](Cc2ccc(F)c(F)c2)C(=O)N(C)[C@@H](Cc2ccccc2)C(=O)N1C [Example 9313] ({CH2CO}-[Phe(3,4-F2)][NMeF][NMeNle][d(cisHyp)]DV[dNMeF]E[d(cisHyp)]WYECG-NH2; thioether N-13)
